Earlier results as cited in patent US20080319079A1 (priority 2006, published 2008).

Columns and labels:
[1] = test system: patients with reversible obstructive respiratory diseases; details: for duration of action (bronchodilation): patients with asthma and related respiratory illnesses, inhalation
[2] = repeated doses administered frequently up to a maximum dose of 80 μg per day

SMILES | onset of action ([1]; after inhalation) | duration of action (bronchodilation) [1] | side effects [2]
OCc1cc(C(O)CNCCCCCCOCCCCc2ccccc2)ccc1O (centres unmarked) [Salmeterol] | approximately thirty | twelve | 
CC(C)(C)NCC(O)c1cc(O)cc(O)c1 (centres unmarked) [terbutaline] |  | four to six | 
CC(C)(C)NCC(O)c1ccc(O)c(CO)c1 (centres unmarked) [salbutamol] |  | four to six | 
COc1ccc(CC(C)NCC(O)c2ccc(O)c(NC=O)c2)cc1 (centres unmarked) [formoterol, N-[2-hydroxy-5-(1-hydroxy-2-((2-(4-methoxyphenyl)-1-methylethyl)-amino)-ethyl)phenyl]formamide] |  |  | no more side effects than short acting bronchodilators
